In patent US9902722B2, “Biaryl kinase inhibitors” (BRISTOL-MYERS SQUIBB COMPANY, priority 2014, dated 2018) one finds IC50 data, which are given here for 39 compounds.

One may read the IC50 as the point on the concentration scale where inhibition reaches its midpoint.

The target in the experiment is GST-Xa-hAAK1 (Homo sapiens (Human), UniProt Q2M2I8). The experiment can be described thus: AAK1 Kinase Assay.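 Also: each compound tested across an eleven-point concentration series, with IC50 obtained through non-linear regression fitting.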 The conditions noted are these: bacterially expressed GST-Xa-hAAK1 3.5 nM; ATP 22 μM; peptide substrate 1.5 μM; 3 hours at room temperature; Caliper LabChip 3000. The class given is biochemical.
Chain of GST-Xa-hAAK1 (Q2M2I8 whole entry): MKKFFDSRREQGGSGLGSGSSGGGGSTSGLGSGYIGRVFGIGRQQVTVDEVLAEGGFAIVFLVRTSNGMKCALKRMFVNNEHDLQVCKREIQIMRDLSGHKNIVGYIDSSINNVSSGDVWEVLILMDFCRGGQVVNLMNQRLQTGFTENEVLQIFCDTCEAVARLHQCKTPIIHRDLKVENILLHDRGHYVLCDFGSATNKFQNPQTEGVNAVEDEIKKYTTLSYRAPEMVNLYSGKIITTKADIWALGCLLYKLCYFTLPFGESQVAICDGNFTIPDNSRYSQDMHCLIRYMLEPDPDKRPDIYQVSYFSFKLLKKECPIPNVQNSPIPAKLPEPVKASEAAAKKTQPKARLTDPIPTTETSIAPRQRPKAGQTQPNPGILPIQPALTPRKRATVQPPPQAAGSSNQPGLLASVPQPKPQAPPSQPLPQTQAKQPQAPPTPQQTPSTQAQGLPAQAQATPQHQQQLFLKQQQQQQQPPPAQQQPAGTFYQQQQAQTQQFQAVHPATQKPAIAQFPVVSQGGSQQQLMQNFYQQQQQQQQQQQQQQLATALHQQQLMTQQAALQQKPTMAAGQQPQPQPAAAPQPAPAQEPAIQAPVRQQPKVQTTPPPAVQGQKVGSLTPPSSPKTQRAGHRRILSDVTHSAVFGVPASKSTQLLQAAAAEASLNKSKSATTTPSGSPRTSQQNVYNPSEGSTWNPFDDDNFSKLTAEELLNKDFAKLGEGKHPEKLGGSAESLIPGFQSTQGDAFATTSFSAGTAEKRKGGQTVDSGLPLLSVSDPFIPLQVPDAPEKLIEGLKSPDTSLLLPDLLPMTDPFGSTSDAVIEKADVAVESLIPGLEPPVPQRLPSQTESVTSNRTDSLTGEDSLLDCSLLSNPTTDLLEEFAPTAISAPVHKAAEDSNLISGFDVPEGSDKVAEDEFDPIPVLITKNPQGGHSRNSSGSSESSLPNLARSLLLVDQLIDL

On to `Cc1c(-c2ccc(OC[C@@](C)(N)CC(C)C)c(C(F)(F)F)c2)ccnc1F` [Example 41, (S)-1-(4-(2-fluoro-3-methylpyridin-4-yl)-2-(trifluoromethyl)phenoxy)-2,4-dimethylpentan-2-amine], for which the IC50 was found to be 3.8 nM.
The compound `CC(C)C[C@](C)(N)COc1ccc(-c2ccnc(F)c2F)cc1C(F)(F)F` [Example 42, (S)-1-(4-(2,3-difluoropyridin-4-yl)-2-(trifluoromethyl)phenoxy)-2,4-dimethylpentan-2-amine] returned a half-inhibitory concentration (IC50) of 3.3 nM.
On to `CC(C)C[C@](C)(N)COc1ccc(-c2ccncc2)cc1C(F)(F)F` [Example 43, (S)-2,4-dimethyl-1-(4-(pyridin-4-yl)-2-(trifluoromethyl)phenoxy)pentan-2-amine], for which the IC50 stood at 0.64 nM.
Take `Cc1cc(-c2ccc(OC[C@@](C)(N)CC(C)C)c(C(F)(F)F)c2)ccn1` [Example 45, (S)-2,4-dimethyl-1-(4-(2-methylpyridin-4-yl)-2-(trifluoromethyl)phenoxy)pentan-2-amine]: the IC50 was 1.2 nM.
To `COc1cnccc1-c1ccc(OC[C@@](C)(N)CC(C)C)c(C(F)(F)F)c1` [Example 46, (S)-1-(4-(3-methoxypyridin-4-yl)-2-(trifluoromethyl)phenoxy)-2,4-dimethylpentan-2-amine] belongs 0.86 nM; to `CC(C)C[C@](C)(N)COc1ccc(-c2ccncc2F)cc1C(F)(F)F` [Example 47, (S)-1-(4-(3-fluoropyridin-4-yl)-2-(trifluoromethyl)phenoxy)-2,4-dimethylpentan-2-amine], 0.77 nM.
To `Cc1cc(-c2ccc(OC[C@@](C)(N)CC(C)C)c(C(F)F)c2)ccn1` [Example 50, (S)-1-(2-(difluoromethyl)-4-(2-methylpyridin-4-yl)phenoxy)-2,4-dimethylpentan-2-amine] belongs 0.38 nM; to `COC(=O)Nc1cc(-c2ccc(OCC(C)(N)CC(C)C)cn2)ccn1` (stereo not drawn) [Example 63, methyl (5-((2-amino-2,4-dimethylpentyl)oxy)-[2,4′-bipyridin]-2′-yl)carbamate], 24 nM.
To `COC(=O)Nc1cc(-c2ccc(OC[C@@](C)(N)CC(C)C)c(C)n2)ccn1` [Example 64, (S)-methyl (5-((2-amino-2,4-dimethylpentyl)oxy)-6-methyl-[2,4′-bipyridin]-2′-yl)carbamate] belongs 1.1 nM; to `Cc1cc(-c2ccc(OC[C@@](C)(N)CC(C)C)c(C)n2)ccn1` [Example 65, (S)-1-((2′,6-dimethyl-[2,4′-bipyridin]-5-yl)oxy)-2,4-dimethylpentan-2-amine], 42 nM.
Regarding `COC(=O)Nc1cc(-c2ccc(OC[C@@](C)(N)CC(C)C)c(Cl)n2)ccn1` [Example 66, (S)-methyl (5-((2-amino-2,4-dimethylpentyl)oxy)-6-chloro-[2,4′-bipyridin]-2′-yl)carbamate], 0.65 nM corresponded to half-maximal inhibition (IC50).
On to `COC(=O)Nc1cc(-c2cc(C)c(OC[C@@](C)(N)CC(C)C)cn2)ccn1` [Example 68, (S)-methyl (5-((2-amino-2,4-dimethylpentyl)oxy)-4-methyl-[2,4′-bipyridin]-2′-yl)carbamate], for which the IC50 was 2.6 nM.
The compound `CC(C)C[C@](C)(N)COc1ccc(-c2ccnc3ccccc23)cc1C(F)(F)F` [Example 69, (S)-2,4-dimethyl-1-(4-(quinolin-4-yl)-2-(trifluoromethyl)phenoxy)pentan-2-amine] showed an IC50 of 0.76 nM.
`CC(C)C[C@](C)(N)COc1ccc(-c2ccnc3cc(C(F)(F)F)ccc23)cc1C(F)(F)F` [Example 70, (S)-2,4-dimethyl-1-(2-(trifluoromethyl)-4-(7-(trifluoromethyl)quinolin-4-yl)phenoxy)pentan-2-amine] showed an IC50 of 2.3 nM.
Compound `CC(C)C[C@](C)(N)COc1ccc(-c2ccnc3cc(F)cc(F)c23)cc1C(F)(F)F` [Example 72, (S)-1-(4-(5,7-difluoroquinolin-4-yl)-2-(trifluoromethyl)phenoxy)-2,4-dimethylpentan-2-amine] came in with an IC50 of 0.53 nM.
Consider `CC(C)C[C@](C)(N)COc1ccc(-c2ccnc3ccc(F)cc23)cc1C(F)(F)F` [Example 73, (S)-1-(4-(6-fluoroquinolin-4-yl)-2-(trifluoromethyl)phenoxy)-2,4-dimethylpentan-2-amine], for which half-maximal inhibition (IC50) was put at 0.51 nM.
The result for `CC(C)C[C@](C)(N)COc1ccc(-c2ccnc3ccccc23)cc1C1CC1` [Example 74, (S)-1-(2-cyclopropyl-4-(quinolin-4-yl)phenoxy)-2,4-dimethylpentan-2-amine] reads 0.07 nM; that for `CC(C)CC(C)(N)COc1c(F)cc(-c2ccnc3ccccc23)cc1Cl` (stereo not drawn) [Example 75, 1-(2-chloro-6-fluoro-4-(quinolin-4-yl)phenoxy)-2,4-dimethylpentan-2-amine], 34 nM; that for `Cc1cc(-c2ccnc3cc(F)ccc23)cnc1OC[C@@](C)(N)CC(C)C` [Example 76, (S)-1-((5-(7-fluoroquinolin-4-yl)-3-methylpyridin-2-yl)oxy)-2,4-dimethylpentan-2-amine], 1.7 nM.
To `CC(C)C[C@](C)(N)COc1ncc(-c2ccnc3cc(F)cc(F)c23)cc1C#N` [Example 77, (S)-2-((2-amino-2,4-dimethylpentyl)oxy)-5-(5,7-difluoroquinolin-4-yl)nicotinonitrile] belongs 0.92 nM; to `COc1cc(-c2ccnc3ccccc23)cnc1OC[C@@](C)(N)CC(C)C` [Example 79, (S)-1-((3-methoxy-5-(quinolin-4-yl)pyridin-2-yl)oxy)-2,4-dimethylpentan-2-amine], 16 nM; to `CC(C)C[C@](C)(N)COc1ncc(-c2ccnc3ccncc23)cc1C#N` [Example 80, (S)-2-((2-amino-2,4-dimethylpentyl)oxy)-5-(1,6-naphthyridin-4-yl)nicotinonitrile], 19 nM.
The result for `Cc1nc(-c2ccnc3ccccc23)ccc1OC[C@@](C)(N)CC(C)C` [Example 81, (S)-2,4-dimethyl-1-((2-methyl-6-(quinolin-4-yl)pyridin-3-yl)oxy)pentan-2-amine] reads 7.8 nM.
For the compound `Cc1cc(-c2ccnc3ccccc23)ncc1OC[C@@](C)(N)CC(C)C` [Example 82, (S)-2,4-dimethyl-1-((4-methyl-6-(quinolin-4-yl)pyridin-3-yl)oxy)pentan-2-amine], the IC50 is 0.85 nM.
The result for `CC(C)C[C@](C)(N)COc1ccc(-c2ccnc3ccccc23)nc1Cl` [Example 83, (S)-1-((2-chloro-6-(quinolin-4-yl)pyridin-3-yl)oxy)-2,4-dimethylpentan-2-amine] reads 1.8 nM; that for `CC(C)C[C@](C)(N)COc1ccc(-c2ccnc3[nH]ccc23)cc1C(F)(F)F` [Example 84, (S)-1-(4-(1H-pyrrolo[2,3-b]pyridin-4-yl)-2-(trifluoromethyl)phenoxy)-2,4-dimethylpentan-2-amine], 2.2 nM; that for `CC(C)C[C@](C)(N)COc1ccc(-c2ccnc3ccncc23)cc1C(F)(F)F` [Example 85, (S)-1-(4-(1,6-naphthyridin-4-yl)-2-(trifluoromethyl)phenoxy)-2,4-dimethylpentan-2-amine], 0.32 nM.
For `CC(C)C[C@](C)(N)COc1ccc(-c2ccnc3ccncc23)cc1C#N` [Example 86, (S)-2-((2-amino-2,4-dimethylpentyl)oxy)-5-(1,6-naphthyridin-4-yl)benzonitrile], the 50% inhibitory concentration (IC50) amounted to 1.2 nM.
The result for `CC(C)C[C@](C)(N)COc1ccc(-c2ccnc3cccnc23)cc1C#N` [Example 87, (S)-2-((2-amino-2,4-dimethylpentyl)oxy)-5-(1,5-naphthyridin-4-yl)benzonitrile] reads 0.87 nM; that for `CC(C)C[C@](C)(N)COc1ccc(-c2ccnc3cc(Cl)ccc23)cc1C(F)(F)F` [Example 88, (S)-1-(4-(7-chloroquinolin-4-yl)-2-(trifluoromethyl)phenoxy)-2,4-dimethylpentan-2-amine], 0.46 nM; that for `CC(C)C[C@](C)(N)COc1ccc(-c2ccnc3cc(C#N)ccc23)cc1C(F)(F)F` [Example 89, (S)-4-(4-((2-amino-2,4-dimethylpentyl)oxy)-3-(trifluoromethyl)phenyl)quinoline-7-carbonitrile], 0.66 nM.
Turning to `Cc1cc(-c2ccc(OC[C@@](C)(N)CC(C)C)c(C)c2)ccn1` [Example 90, (S)-2,4-dimethyl-1-(2-methyl-4-(2-methylpyridin-4-yl)phenoxy)pentan-2-amine], the half-maximal inhibitory concentration (IC50) turned out to be 2.6 nM.
The result for `Cc1cc(-c2ccc(OC[C@@](C)(N)CC(C)C)c(F)c2)ccn1` [Example 91, (S)-1-(2-fluoro-4-(2-methylpyridin-4-yl)phenoxy)-2,4-dimethylpentan-2-amine] reads 12.1 nM.
To `Cc1cc(-c2ccnc(F)c2)ccc1OC[C@@](C)(N)CC(C)C` [Example 92, (S)-1-(4-(2-fluoropyridin-4-yl)-2-methylphenoxy)-2,4-dimethylpentan-2-amine] belongs 5.4 nM; to `CC(C)C[C@](C)(N)COc1ccc(-c2ccnc(F)c2)cc1F` [Example 93, (S)-1-(2-fluoro-4-(2-fluoropyridin-4-yl)phenoxy)-2,4-dimethylpentan-2-amine], 33 nM; to `CC(C)C[C@](C)(N)COc1ccc(-c2ccnc(F)c2)cc1C#N` [Example 94, (S)-2-((2-amino-2,4-dimethylpentyl)oxy)-5-(2-fluoropyridin-4-yl)benzonitrile], 4.7 nM.
The result for `Cc1cc(-c2ccnc(F)c2)cnc1OC[C@@](C)(N)CC(C)C` [Example 95, (S)-1-((2′-fluoro-5-methyl-[3,4′-bipyridin]-6-yl)oxy)-2,4-dimethylpentan-2-amine] reads 39 nM; that for `Cc1cc(-c2ccnc3cc(C#N)ccc23)cnc1OC[C@@](C)(N)CC(C)C` [Example 96, (S)-4-(6-((2-amino-2,4-dimethylpentyl)oxy)-5-methylpyridin-3-yl)quinoline-7-carbonitrile], 3 nM.
`Cc1cc(-c2cnc(OC[C@@](C)(N)CC(C)C)c(F)c2)ccn1` [Example 97, (S)-1-((5-fluoro-2′-methyl-[3,4′-bipyridin]-6-yl)oxy)-2,4-dimethylpentan-2-amine]: it took 142 nM to reach half-maximal inhibition (IC50). This IC50 is about 47-fold higher than that of the compound before.
